Drawing on PubChem BioAssay AID270 (DTP/NCI, 2004), this text covers T/C for eleven compounds.

SMILES strings stand for the structures. Values joined by “and” are separate entries in the source; they are usually repeats but may differ in a detail not shown here. Equal entries are not always repeated. Results filed as inconclusive are left out.

The experiment concerns BDF1 mice, s.c. Lewis lung carcinoma, T/C %. In words: NCI In Vivo Anticancer Drug Screen. Data for tumor model Lewis Lung Carcinoma (subcutaneous) in B6D2F1 (BDF1) mice. The procedure, abridged: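 Tumor-bearing mice were treated with test compound, and either survival or tumor size was recorded. Values are the treated-group measurement divided by that of the vehicle-treated control group.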

Setting [1] is: endpoint: median survival time, dose: 6.25 mg/kg/injection, schedule: Q01DX009 (ip), vehicle: Klucel (hydroxypropylcellulose) (HPC), higher = longer survival.
Setting [2] is: endpoint: median survival time, dose: 12.5 mg/kg/injection, schedule: Q01DX009 (ip), vehicle: Klucel (hydroxypropylcellulose) (HPC), higher = longer survival.

In the case of `C1CN1c1nc(N2CC2)nc(N2CC2)n1`, the T/C is, setting by setting: (endpoint: mean tumor weight, dose: 0.25 mg/kg/injection, schedule: Q01DX011 (ip), vehicle: saline, higher = larger tumour) 72 % of control and 80 % of control; (endpoint: mean tumor weight, dose: 0.5 mg/kg/injection, schedule: Q01DX011 (ip), vehicle: saline, higher = larger tumour) 44 % of control and 46 % of control; (endpoint: median survival time, dose: 0.05 mg/kg/injection, schedule: Q01DX009 (ip), vehicle: saline, higher = longer survival) 96 % of control and 113 % of control; (endpoint: median survival time, dose: 0.1 mg/kg/injection, schedule: Q01DX009 (ip), vehicle: saline, higher = longer survival) 92 % of control and 106 % of control; (endpoint: median survival time, dose: 0.12 mg/kg/injection, schedule: Q01DX009 (ip), vehicle: saline, higher = longer survival) 118 % of control; (endpoint: median survival time, dose: 0.13 mg/kg/injection, schedule: Q01DX009 (ip), vehicle: saline, higher = longer survival) 90 % of control. Further, the T/C reads like this: (endpoint: median survival time, dose: 0.2 mg/kg/injection, schedule: Q01DX009 (ip), vehicle: saline, higher = longer survival) 100 % of control; (endpoint: median survival time, dose: 0.4 mg/kg/injection, schedule: Q01DX009 (ip), vehicle: saline, higher = longer survival) 89 % of control and 104 % of control; (endpoint: median survival time, dose: 0.5 mg/kg/injection, schedule: Q01DX009 (ip), vehicle: saline with Tween-80, higher = longer survival) 123 % of control; (endpoint: median survival time, dose: 0.5 mg/kg/injection, schedule: Q08DX002 (ip), vehicle: saline with Tween-80, higher = longer survival) 102 % of control; (endpoint: median survival time, dose: 0.5 mg/kg/injection, schedule: Q08DX002 (ip), vehicle: saline, higher = longer survival) 92 % of control and 111 % of control and 123 % of control; (endpoint: median survival time, dose: 1.0 mg/kg/injection, schedule: Q08DX002 (ip), vehicle: saline with Tween-80, higher = longer survival) 119 % of control. The T/C (endpoint: median survival time, dose: 2.0 mg/kg/injection, schedule: Q08DX002 (ip), vehicle: saline with Tween-80, higher = longer survival) is 115 % of control; the T/C (endpoint: median survival time, dose: 2.0 mg/kg/injection, schedule: Q08DX002 (ip), vehicle: saline, higher = longer survival) is 155 % of control; the T/C (endpoint: median survival time, dose: 4.0 mg/kg/injection, schedule: Q08DX002 (ip), vehicle: saline, higher = longer survival) was 93 % of control; the T/C (endpoint: median survival time, dose: 250.0 micrograms/kg/injection, schedule: Q01DX009 (ip), vehicle: saline, higher = longer survival) is 172 % of control; the T/C (endpoint: median survival time, dose: 500.0 micrograms/kg/injection, schedule: Q01DX009 (ip), vehicle: saline, higher = longer survival) is 110 % of control; the T/C (endpoint: median tumor weight (est.), dose: 0.12 mg/kg/injection, schedule: Q01DX009 (ip), vehicle: saline with Tween-80, higher = larger tumour) was 95 % of control. The T/C (endpoint: median tumor weight (est.), dose: 0.25 mg/kg/injection, schedule: Q01DX009 (ip), vehicle: saline with Tween-80, higher = larger tumour) is 81 % of control; the T/C (endpoint: median tumor weight (est.), dose: 0.5 mg/kg/injection, schedule: Q01DX009 (ip), vehicle: saline with Tween-80, higher = larger tumour) is 58 % of control; the T/C (endpoint: median tumor weight (est.), dose: 0.5 mg/kg/injection, schedule: Q08DX002 (ip), vehicle: saline with Tween-80, higher = larger tumour) is 97 % of control; the T/C (endpoint: median tumor weight (est.), dose: 1.0 mg/kg/injection, schedule: Q08DX002 (ip), vehicle: saline with Tween-80, higher = larger tumour) is 86 % of control; the T/C (endpoint: median tumor weight (est.), dose: 2.0 mg/kg/injection, schedule: Q08DX002 (ip), vehicle: saline with Tween-80, higher = larger tumour) is 49 % of control.
For `CS(=O)(=O)OCCCCOS(C)(=O)=O`, the T/C was 91 % of control and 104 % of control (endpoint: mean tumor weight, dose: 12.5 mg/kg/injection, schedule: Q01DX011 (ip), vehicle: carboxymethylcellulose (CMC), higher = larger tumour); 94 % of control (endpoint: median survival time, dose: 10.0 mg/kg/injection, schedule: Q01DX009 (ip), vehicle: Klucel (hydroxypropylcellulose) (HPC), higher = longer survival); 100 % of control (endpoint: median survival time, dose: 10.0 mg/kg/injection, schedule: Q01DX009 (ip), vehicle: saline with Tween-80, higher = longer survival); 93 % of control (endpoint: median survival time, dose: 20.0 mg/kg/injection, schedule: Q01DX009 (ip), vehicle: saline with Tween-80, higher = longer survival); 92 % of control (endpoint: median survival time, dose: 40.0 mg/kg/injection, schedule: Q01DX009 (ip), vehicle: Klucel (hydroxypropylcellulose) (HPC), higher = longer survival); 86 % of control (endpoint: median tumor weight (est.), dose: 10.0 mg/kg/injection, schedule: Q01DX009 (ip), vehicle: saline with Tween-80, higher = larger tumour). Also, the T/C by setting is: (endpoint: median tumor weight (est.), dose: 20.0 mg/kg/injection, schedule: Q01DX009 (ip), vehicle: saline with Tween-80, higher = larger tumour) 80 % of control; (endpoint: median tumor weight (est.), dose: 40.0 mg/kg/injection, schedule: Q01DX009 (ip), vehicle: saline with Tween-80, higher = larger tumour) 45 % of control.
Consider `CCOC(=O)C(C)(C)Br`, for which the T/C by setting is: (endpoint: mean tumor weight, dose: 75.0 mg/kg/injection, schedule: Q01DX011 (ip), vehicle: other, higher = larger tumour) 90 % of control; (endpoint: mean tumor weight, dose: 150.0 mg/kg/injection, schedule: Q01DX011 (ip), vehicle: other, higher = larger tumour) 114 % of control; (endpoint: mean tumor weight, dose: 300.0 mg/kg/injection, schedule: Q01DX011 (ip), vehicle: other, higher = larger tumour) 98 % of control; (endpoint: mean tumor weight, dose: 500.0 mg/kg/injection, schedule: Q01DX011 (ip), vehicle: other, higher = larger tumour) 68 % of control; (endpoint: mean tumor weight, dose: 600.0 mg/kg/injection, schedule: Q01DX011 (ip), vehicle: other, higher = larger tumour) 102 % of control; (endpoint: mean tumor weight, dose: 750.0 mg/kg/injection, schedule: Q01DX011 (ip), vehicle: other, higher = larger tumour) 37 % of control.
As to `O=C1CN=C(c2ccc[nH]2)c2cc(Cl)ccc2N1`, the T/C (endpoint: mean tumor weight, dose: 40.0 mg/kg/injection, schedule: Q01DX011 (ip), vehicle: other, higher = larger tumour) was 112 % of control; the T/C (endpoint: mean tumor weight, dose: 120.0 mg/kg/injection, schedule: Q01DX011 (ip), vehicle: other, higher = larger tumour) was 73 % of control and 90 % of control.
`O=NN(CCCl)C(=O)Nc1ccc(I)cc1`: the T/C by setting is: (endpoint: median survival time, dose: 3.12 mg/kg/injection, schedule: Q01DX009 (ip), vehicle: Klucel (hydroxypropylcellulose) (HPC), higher = longer survival) 92 % of control; under setting [1], 97 % of control; under setting [2], 101 % of control; (endpoint: median survival time, dose: 50.0 mg/kg/injection, schedule: Q01DX009 (ip), vehicle: Klucel (hydroxypropylcellulose) (HPC), higher = longer survival) 108 % of control.
For `Clc1ccc(C(c2ccccc2Cl)C(Cl)Cl)cc1` (centres undefined), the T/C reads like this: (endpoint: mean tumor weight, dose: 62.5 mg/kg/injection, schedule: Q01DX011 (sc), vehicle: steriod suspending solution, higher = larger tumour) 98 % of control; (endpoint: mean tumor weight, dose: 125.0 mg/kg/injection, schedule: Q01DX011 (sc), vehicle: steriod suspending solution, higher = larger tumour) 113 % of control; (endpoint: mean tumor weight, dose: 250.0 mg/kg/injection, schedule: Q01DX011 (sc), vehicle: steriod suspending solution, higher = larger tumour) 84 % of control; (endpoint: mean tumor weight, dose: 500.0 mg/kg/injection, schedule: Q01DX011 (sc), vehicle: steriod suspending solution, higher = larger tumour) 99 % of control.
As to `COC1C(O)CC(OC2CC(Oc3cc4cc5c(c(O)c4c(O)c3C)C(=O)[C@@H](OC3CC(OC4CC(OC6CC(C)(O)C(OC(C)=O)C(C)O6)C(O)C(C)O4)C(O)C(C)O3)[C@H]([C@H](OC)C(=O)[C@@H](O)[C@@H](C)O)C5)OC(C)C2OC(C)=O)OC1C` (some centres undefined), the T/C reads like this: (endpoint: mean tumor weight, dose: 33.0 micrograms/kg/injection, schedule: Q01DX011 (ip), vehicle: saline with Tween-80, higher = larger tumour) 93 % of control; (endpoint: mean tumor weight, dose: 65.0 micrograms/kg/injection, schedule: Q01DX011 (ip), vehicle: saline with Tween-80, higher = larger tumour) 82 % of control; (endpoint: mean tumor weight, dose: 130.0 micrograms/kg/injection, schedule: Q01DX011 (ip), vehicle: saline with Tween-80, higher = larger tumour) 66 % of control; (endpoint: median survival time, dose: 0.02 mg/kg/injection, schedule: Q01DX011 (ip), vehicle: other, higher = longer survival) 107 % of control.
As to `CC(C)=CCC/C(C)=C/CNCCc1c[nH]c2ccccc12`, the T/C by setting is: under setting [1], 100 % of control; under setting [2], 101 % of control; (endpoint: median survival time, dose: 25.0 mg/kg/injection, schedule: Q01DX009 (ip), vehicle: Klucel (hydroxypropylcellulose) (HPC), higher = longer survival) 97 % of control.
Turning to `CC(C)[C@]1(O)CC[C@H]2[C@@H]3CCc4cc(O)ccc4[C@H]3CC[C@@]21C`, the T/C is 87 % of control (endpoint: mean tumor weight, dose: 2.5 mg/kg/injection, schedule: Q01DX011 (sc), vehicle: saline, higher = larger tumour); 68 % of control (endpoint: mean tumor weight, dose: 5.0 mg/kg/injection, schedule: Q01DX011 (sc), vehicle: saline, higher = larger tumour); 80 % of control (endpoint: mean tumor weight, dose: 10.0 mg/kg/injection, schedule: Q01DX011 (sc), vehicle: saline, higher = larger tumour); 51 % of control (endpoint: mean tumor weight, dose: 10.0 mg/kg/injection, schedule: Q01DX011 (sc), vehicle: steriod suspending solution, higher = larger tumour); 65 % of control (endpoint: mean tumor weight, dose: 20.0 mg/kg/injection, schedule: Q01DX011 (sc), vehicle: steriod suspending solution, higher = larger tumour); 36 % of control (endpoint: mean tumor weight, dose: 40.0 mg/kg/injection, schedule: Q01DX011 (sc), vehicle: steriod suspending solution, higher = larger tumour). In addition, the T/C (endpoint: mean tumor weight, dose: 80.0 mg/kg/injection, schedule: Q01DX011 (sc), vehicle: steriod suspending solution, higher = larger tumour) is 55 % of control.
In the case of `CC1CN(C(=O)CCl)c2ccccc2N1C(=O)CCl` (centres undefined), the T/C (endpoint: mean tumor weight, dose: 1.0 mg/kg/injection, schedule: Q01DX011 (ip), vehicle: carboxymethylcellulose (CMC), higher = larger tumour) is 121 % of control; the T/C (endpoint: mean tumor weight, dose: 2.0 mg/kg/injection, schedule: Q01DX011 (ip), vehicle: carboxymethylcellulose (CMC), higher = larger tumour) is 94 % of control; the T/C (endpoint: mean tumor weight, dose: 4.0 mg/kg/injection, schedule: Q01DX011 (ip), vehicle: carboxymethylcellulose (CMC), higher = larger tumour) is 75 % of control; the T/C (endpoint: mean tumor weight, dose: 8.0 mg/kg/injection, schedule: Q01DX011 (ip), vehicle: carboxymethylcellulose (CMC), higher = larger tumour) was 124 % of control.
As for `Oc1cc2c3c(c1)c1cc4c(cc1c[n+]3CC2)OCO4`, the T/C runs as follows: (endpoint: median survival time, dose: 3.13 mg/kg/injection, schedule: Q01DX009 (ip), vehicle: water, higher = longer survival) 109 % of control; (endpoint: median survival time, dose: 6.25 mg/kg/injection, schedule: Q01DX009 (ip), vehicle: water, higher = longer survival) 96 % of control; (endpoint: median survival time, dose: 12.5 mg/kg/injection, schedule: Q01DX009 (ip), vehicle: water, higher = longer survival) 122 % of control; (endpoint: median survival time, dose: 25.0 mg/kg/injection, schedule: Q01DX009 (ip), vehicle: water, higher = longer survival) 96 % of control.
